Results taken from PMC6888004 (International Journal of Molecular Sciences, 2019).

Tests used:
[1] = tested on: EBC-1 cells; assay: Colocalization with lysosomes in EBC-1 cells by confocal microscopy; type: cell-based; settings: 10 µM, 24 h
Description: EBC-1 cells were seeded in eight well Ibidi® μ-Slide microscopic slides (2 × 10^4 cells/well) and allowed to adhere for 48 h. Cells were then treated with 10 µM [D-Lys^6(FITC)]–GnRH-I in complemented EMEM (Lonza) and incubated in a humidified, 5% CO2 atmosphere incubator for 24 h at 37 °C.
To investigate colocalization of [D-Lys^6(FITC)]–GnRH-I with lysosomes (in Figure 6), after [D-Lys^6(FITC)]–GnRH-I treatment (24 h, 10 µM), Lysoview 633 dye was added to the treating medium and the cells were incubated for a further 1 h. After incubation, cells were washed twice with EMEM. Images of the living cells were acquired with a Zeiss Confocal LSM 710 microscope [Objective: Plan-Apochromat 63×/1.40 Oil DIC M27. Pinhole: 1.95 AU. Laser wavelength: 488 nm and 633 nm. Detection wavelength: 496–573 nm; 633–693 nm)].

[2] = tested on: EBC-1 cells; assay: Cellular uptake in EBC-1 cells by flow cytometry; type: cell-based; settings: 0.1, 1, 10 µM; 2, 6, 24, 72 h
Description: 2 × 10^4 EBC-1 cells per well were seeded onto 24 well plates (VWR) and allowed to adhere for 48 h. Cells were treated with [D-Lys^6(FITC)]–GnRH-I in complemented EMEM (Lonza) at 0.1, 1, and 10 µM, and incubated in a humidified, 5% CO2 atmosphere incubator for 2, 6, 24, and 72 h at 37 °C.
After incubation, supernatant was discarded and the cells were washed twice with PBS (Lonza). Trypsin (Thermo Fisher Scientific, cat. no.: 25300062) was added for 10 min at 37 °C. Cells were pelleted (250× g, 4 min, 4 °C) in flow cytometry tubes, resuspended in 300 µL PBS and kept at 4 °C for the rest of the experiment. The fluorescence intensity of the conjugate-stained cells was analysed using a FACS Calibur flow cytometer (BD Biosciences, San Jose, CA) using channel FL1. Data were evaluated by CellQuest Pro software (BD Biosciences). The relative median fluorescent intensity (MFI) values (based on DMSO control) were calculated.
Calculation formula: relative MFI compound;xh;yµM=MFI compound;xh;yµM/MFI DMSO control;xh • x time (h) • y concentration (µM)

[3] = tested on: endometrial cancer; design: method as in https://clinicaltrials.gov; settings: phase III, ref https://clinicaltrials.gov; cited from earlier work
[4] = design: method as in PMID 10639165; settings: cited from earlier work

Molecule	colocalization with lysosome marker Lysoview 633 [1]	cellular uptake [2]	clinical outcome compared to doxorubicin [3]	half-life in human serum [4]
CC(C)C[C@H](NC(=O)[C@@H](CCCCNC(=S)Nc1ccc2c(c1)C(=O)OC21c2ccc(O)cc2Oc2cc(O)ccc21)NC(=O)[C@H](Cc1ccc(O)cc1)NC(=O)[C@H](CO)NC(=O)[C@H](Cc1c[nH]c2ccccc12)NC(=O)[C@H](Cc1c[nH]cn1)NC(=O)[C@@H]1CCC(=O)N1)C(=O)N[C@@H](CCCNC(=N)N)C(=O)N1CCC[C@H]1C(=O)NCC(N)=O [[D-Lys^6(FITC)]–GnRH-I]	highly correlated	concentration-dependent dynamic uptake	–	–
zoptarelin doxorubicin	–	–	could neither extend overall survival, nor improve the safety profile	approximately 2 h
